Data set [1] relates to tobacco budworm Heliothis virescens. The note with it: cited from earlier work.
In data set [2] the test system is Drosophila melanogaster (strain OR/R). Description: survival of flies after insecticide treatment (FIG. 1). In kind it is in vivo. Particulars: 16 h after insecticide-treatment.
The test system of data set [3] is Ceratitis capitata (strain Benakeion). Described as above. In kind it is in vivo. The note with it: 16 h after insecticide-treatment.
Data set [4] deals with acetylcholinesterase (AchE). The note with it: cited from earlier work.
Data set [5] concerns adult boll weevil Anthonomus granids Boheman. Particulars: cited from earlier work.
Data set [6] has as its system mixed function oxidase system. The note with it: in vitro mixed function oxidase system; cited from earlier work.
Data set [7] has as its system nicotinergic acetylcholine receptor (nAcR). The note with it: relative to imidacloprid; cited from earlier work.
In data set [8] the test system is housefly. The note with it: relative to imidacloprid; cited from earlier work.

The structures appear in SMILES notation. Where two headings read alike, the source gives them in different places.

Turning to `COP(=O)(NC(C)=O)SC` (stereo not drawn) [Acephate, O, S dimethyl acetylphosphoramidothicate], the “activity in the tobacco budworm” value in data set [1] (acephate compared with methamidophos) is on record as “comparable activity”. Besides, the “methamidophos observed in budworm larvae” value in data set [1] (within 2 hours of a topical acephate application) is “small amount of methamidophos”. In addition, in data set [2], the “activity compared to Methamidophos” value is “less active” and the “sensitivity of flies ((%) survival)” value is recorded as “sensitive”. For the same compound, in data set [3], the “activity compared to Methamidophos” value was “less active” and the “sensitivity of flies ((%) survival)” value is “sensitive”. For the same compound, in data set [4], the AchE inhibition entry is on record as “not an AchE inhibitor”.
On to `COP(N)(=O)SC` (stereo not drawn) [Methamidophos, O, S-dimethyl phosphoramidothicate], for which, in data set [5], the “fold more toxic than acephate” value is 75 fold. The “activity in the tobacco budworm” value in data set [1] (in vivo) is listed as “comparable activity”. The “sensitivity of flies ((%) survival)” value in data set [2] and in data set [3] was “sensitive” each time. In addition, in data set [4], the AchE inhibition result is “potent acetylcholinesterase (AchE) inhibitor”.
As for `CN1CCN(Cc2ccc(Cl)nc2)C1=N[N+](=O)[O-]` [N-Me-imidacloprid], the conversion to imidacloprid entry in data set [6] is listed as “can be converted to imidacloprid”. The “decrease of binding affinity to nAcR” value in data set [7] is 100 fold. Besides, the “potency in the housefly” value in data set [8] was “as potent as imidacloprid”.

(Values after patent US20040003429A1, “Pest control system” (priority 2000, published 2004).)
